Reference: PubChem BioAssay AID1645865 (Buhrlage Lab, Dana-Farber Cancer Institute and Novartis …, 2021)
Activity calls are given as the source filed them.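 The calls were made as follows: active = maximal inhibition of the USP30 enzyme reaching 30% or more across the dose series; inactive = the rest.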

target: Ubiquitin carboxyl-terminal hydrolase 30 (Homo sapiens) (UniProt Q70CQ3); test: ubiquitin-specific protease 30 DUB inhibitors, concentration-effect, biochemical, validation of primary actives (AID 1645865); settings: purified USP30, Ub-rhodamine cleavage, fluorescence, 2 h
Sequence (Q70CQ3 whole entry, looked up): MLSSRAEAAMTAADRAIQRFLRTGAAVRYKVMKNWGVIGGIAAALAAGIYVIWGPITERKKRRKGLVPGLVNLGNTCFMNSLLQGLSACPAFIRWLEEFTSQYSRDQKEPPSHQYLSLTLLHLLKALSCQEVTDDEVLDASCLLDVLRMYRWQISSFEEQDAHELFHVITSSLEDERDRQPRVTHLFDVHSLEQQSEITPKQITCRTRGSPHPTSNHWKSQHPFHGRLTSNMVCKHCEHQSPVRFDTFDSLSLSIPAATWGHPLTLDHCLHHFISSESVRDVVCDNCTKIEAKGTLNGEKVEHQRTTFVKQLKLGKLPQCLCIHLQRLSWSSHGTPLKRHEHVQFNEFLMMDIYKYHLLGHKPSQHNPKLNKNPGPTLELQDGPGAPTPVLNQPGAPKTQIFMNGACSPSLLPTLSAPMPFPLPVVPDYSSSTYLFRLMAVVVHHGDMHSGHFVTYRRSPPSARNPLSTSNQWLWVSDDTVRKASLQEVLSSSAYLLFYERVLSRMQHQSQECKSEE

Row | IC50 | Structure (SMILES)
1 | > 50 µM (inactive) | Cc1ccccc1C(=O)OCCN1C(=O)c2cccc3c(N4CCOCC4)ccc(c23)C1=O
2 | > 50 µM (inactive) | CCc1ccc(C(C)NC(=O)C2CCN(c3ccc4nncn4n3)CC2)cc1 (stereo not given)
3 | 1.86 µM | COc1ccc(NC(=O)CNC(=O)c2ccc3nc(-n4cccc4)sc3c2)cc1
4 | 19.6 µM | Cc1cccc(NC(=O)CSc2ncnc3c2sc2nc(CC(C)C)c4c(c23)CCC4)c1
5 | > 50 µM (inactive) | COc1c2nc3ccccc3oc-2cc(=O)c1OC
6 | 47.3 µM | CO[C@H]1CC[C@H](O)c2c1oc1c3c4c(c(O)c1c2=O)-c1c(cc2c(Cl)c(C)n(N)c(=O)c2c1O)C[C@@H]4OCO3
7 | 7 µM | Cn1c(-c2nnc(SCC(=O)NCCc3ccccc3)o2)cc2ccccc21
8 | 2.68 µM | Cc1cc(N2CCN(c3ncccn3)CC2)nc2ccc(NC(=O)c3ccncc3)cc12
9 | 32.3 µM | CC1=C(c2ccc(F)cc2)S(=O)(=O)N=C1Nc1ccc(Cl)cc1
10 | 2.17 µM | CCOC(=O)c1cnn(-c2ccc(C(=O)Nc3ccc(C)c(Cl)c3)cc2)c1N
11 | 41.2 µM | COc1cccc(NC(=O)C2C3C=CC4(O3)C2C(=O)N(CCc2ccccc2Cl)C4C(=O)NC2CCCCC2)c1 (stereo not given)
12 | 40.7 µM | Cc1ccc2cc(CNc3ccccc3)c(=O)n(CC(=O)Nc3ccccc3C)c2c1
13 | 1.34 µM | COc1cc(Cl)c(C)cc1NC(=O)Cn1c(=O)n(CC(=O)NCc2ccco2)c(=O)c2ccccc21
14 | > 50 µM (inactive) | Cc1nn(C)c2c1[C@@H](c1ccc(F)c(Br)c1)[C@H](NC(=O)c1ccccc1)C(=O)N2
15 | > 50 µM (inactive) | CCn1cc(NC(=O)CN2CCC3(CC=CCOC3)CC2)c(C)n1
16 | 34.3 µM | CN1CCC(N(C)S(=O)(=O)c2ccc(NC(=O)c3cccc(OCc4ccccc4)c3)cc2)CC1
17 | 29.2 µM | Cc1ccc(-c2c(C(=O)Nc3ccc(S(N)(=O)=O)cc3)oc(=O)c3ccccc23)cc1
18 | 25.8 µM | CC(=O)Nc1ccc(-n2cnc(C(=O)NC(C)c3ccccc3)c2)nc1 (stereo not given)
19 | > 50 µM (inactive) | O=C(CCc1nnc2n(Cc3ccc(F)cc3)c(=O)c3ccccc3n12)N1CCN(c2ccccn2)CC1
20 | 35.6 µM | CC(=O)c1cccc(NC(=O)c2ccc(N3CCCCC3)nn2)c1
21 | 15.7 µM | COc1ccc(C)cc1NC(=O)C1CC(=O)Nc2nc(SCc3ccccc3)nn21 (stereo not given)
22 | 3.81 µM | COc1ccc(CNC(=O)Nc2cccc3ccccc23)cc1
23 | 43.2 µM | Cc1ccc(NC(=O)c2ccc(Nc3nnc(C)c4ccccc34)cc2)cc1
24 | > 50 µM (inactive) | COc1ccc(-n2ccc(=O)c(-c3nc(-c4ccccc4F)no3)n2)cc1OC
25 | 2.32 µM | COc1ccc(NC(=O)Cn2cc(C(=O)c3ccc(C)cc3)c(=O)c3ccccc32)cc1

Row | IC50 | Structure (SMILES)
26 | 12 µM | CC(=O)Nc1ccc(NC(=O)c2cc(-c3cc(C)cc(C)c3O)n[nH]2)cc1
27 | 2.05 µM | CCOc1ccc2[nH]c3c(=O)n(CCc4ccc(OC)cc4)cnc3c2c1
28 | > 50 µM (inactive) | CN1CCN(C(=O)c2cc(-c3ccn(-c4ccccc4)n3)n3ccccc23)CC1
29 | > 50 µM (inactive) | O=C(Nc1cc(F)c2nc(N3CCCC3)ccc2c1)c1ccco1
30 | 24 µM | CCc1ccccc1NC(=O)c1cc(-c2ccccn2)n[nH]1
31 | > 50 µM (inactive) | COc1ccc(Nc2nc(C(=O)NCc3ccccc3)cc3occc23)cc1
32 | 24.6 µM | COc1cccc(C(=O)Nc2ccc(-n3cnnn3)cc2)c1
33 | > 50 µM (inactive) | Cc1ccc2nc(N3CCc4ccccc4C3)c3nncn3c2c1
34 | 3.03 µM | Cc1c(Cl)cccc1NC(=O)Cn1ccc2ccccc2c1=O
35 | > 50 µM (inactive) | Cc1ccc(/C=C/C(=O)Nc2ccc3c(c2)OCCO3)cc1
36 | > 50 µM (inactive) | COc1cc2c(cc1OC)C(COc1ccccc1OC)N(C(=O)c1ccc3ccccc3c1)CC2 (stereo not given)
37 | > 50 µM (inactive) | Cc1noc(-c2cccn(Cc3cccc(C(F)(F)F)c3)c2=O)n1
38 | 18.7 µM | O=C(Nc1ccc(Cl)cc1)Nc1cccn2ncnc12
39 | > 50 µM (inactive) | O=C(/C=C/c1ccccc1)N1CCN(C2=NS(=O)(=O)c3ccccc32)CC1
40 | > 50 µM (inactive) | O=C(Nc1ccccc1)c1cn2c3c(cccc3c1=O)CC2
41 | 1.59 µM | COc1ccc(-c2cc(-c3ccccc3)nc(SCC(N)=O)c2C#N)cc1OC
42 | 42.2 µM | O=C1COc2ccc(NC(=O)c3cnn(Cc4ccccc4)c3)cc2N1
43 | 2.13 µM | Cc1ccc(CNC(=O)CCCn2c(=O)c3sccc3n(CC(=O)Nc3cc(Cl)ccc3C)c2=O)cc1
44 | > 50 µM (inactive) | COc1ccc(/C=C/C(=O)N2CCc3ccccc32)cc1S(=O)(=O)N1CCOCC1
45 | 31.4 µM | Cc1ccc(NC(=O)CSc2nc3c(cc2C#N)C(=O)CCC3)cc1
46 | 17.2 µM | O=C1Oc2nc3ccccc3cc2CN1Cc1ccco1
47 | 6.35 µM | CC(C)c1cc(Nc2cccc(F)c2)n2nc(-c3cccnc3)nc2n1
48 | 8.36 µM | Cc1ccc(NC(=O)c2sc3ncn(CC(=O)N4CCN(c5ccccn5)CC4)c(=O)c3c2C)c(Br)c1
49 | > 50 µM (inactive) | CCOC(=O)C1CCN(C(=O)c2ccc3c(c2)NC(=O)C2CCCN32)CC1 (stereo not given)
50 | > 50 µM (inactive) | COc1cccc(CNC(=O)C2=Cc3cccc(OC)c3OC2)c1

Row | IC50 | Structure (SMILES)
51 | > 50 µM (inactive) | CN(C(=O)CSc1nnc(-c2cc3ccccc3n2C)o1)c1ccccc1
52 | > 50 µM (inactive) | CC(=O)c1ccc(NC(=O)C2CCN(c3cncnc3N3CCCC3)CC2)cc1
53 | > 50 µM (inactive) | O=c1[nH]c2ccc(S(=O)(=O)Nc3ccc(O)c4ccccc34)cc2[nH]1
54 | 2.06 µM | CC(c1ccccc1)n1c(-c2ccc(F)cc2)nc2c(c(=O)c3ccccc3n2C)c1=O (stereo not given)
55 | 34.6 µM | COc1cc(O)c2c(c1)C1=CC(=O)C(O)=C[C@]1(C)OC2=O
56 | 20.2 µM | O=C(CCSc1ccc(Cl)cc1)c1cccs1
57 | 1.82 µM | COc1ccc2ncc3c(-c4ccc(C)cc4)nn(-c4ccc(F)cc4)c3c2c1
58 | > 50 µM (inactive) | COc1ccc(/C=C/c2ccnc3nc(-n4cccc4)nn23)cc1
59 | > 50 µM (inactive) | COc1ccc2nc3c(cc2c1)c(=O)n(C)c1c3c(=O)n(-c2ccccc2)c(=O)n1-c1ccccc1
60 | 3.58 µM | O=C(NCc1ccc2c(c1)OCO2)c1cc2c(s1)-c1ccccc1OC2
61 | 11 µM | CC(=O)c1sc(NC(=O)c2ccccc2-c2ccc(C(F)(F)F)cc2)nc1C
62 | 18.3 µM | COc1ccc(CCNC(=O)CCCn2c(=O)c3ccccc3n(CC(=O)OCc3ccccc3)c2=O)cc1OC
63 | > 50 µM (inactive) | COc1cc(C(=O)OCc2csc(-c3ccccc3)n2)ccc1OCC(=O)Nc1ccc(F)cc1
64 | 3.47 µM | CCn1cc2c(n1)c(=O)n(Cc1ccc(C)cc1)c(=O)n2CC(=O)Nc1ccc(F)cc1
65 | > 50 µM (inactive) | O=C(COC(=O)c1ccc2ncsc2c1)Nc1ccccc1F
66 | > 50 µM (inactive) | CCCCN(CC)c1ncnc2c1sc1nc(-c3ccco3)c3c(c12)CC(C)(C)OC3
67 | > 50 µM (inactive) | O=C(NCCCN1CCc2ccccc2C1)c1cc2c(s1)CS(=O)(=O)C2
68 | 44.9 µM | COc1ccccc1CNC(=O)c1ccc(CSc2nc3ccncc3n2Cc2ccccc2)cc1
69 | 25.1 µM | O=C(CCc1c[nH]c2ccccc12)Nc1ccc(N2CCOCC2)cc1
70 | > 50 µM (inactive) | O=C(Nc1ccc(Oc2cccc3cccnc23)cc1)c1cccs1
71 | 33.9 µM | O=C(Nc1cccc2ccccc12)N1CCC(c2nc3c(nnn3Cc3ccc(F)cc3)c(=O)[nH]2)CC1
72 | 2.4 µM | O=C(Cn1cc(C(=O)C(F)(F)F)c2ccccc21)N1CCc2ccccc21
73 | 25.6 µM | Cc1ccc(NC(=O)Cn2c(-n3nc(C)cc3C)nc3c(c2=O)CCCC3)c(C)c1
74 | 46.2 µM | CC(=O)c1ccc(NC(=O)CC2C(=O)Nc3nc4ccccc4n32)cc1 (stereo not given)
75 | 11.2 µM | Cc1cc(=O)n(CC(=O)Nc2ccccc2C)c(Nc2ccc(F)cc2)n1

Row | IC50 | Structure (SMILES)
76 | > 50 µM (inactive) | CC(=O)N1CCCC(c2nc(C)cc(-c3cc(F)ccc3C(=O)O)n2)C1 (stereo not given)
77 | 17.7 µM | Cc1ccc(NC(=O)CNC(=O)c2cc3ccccc3o2)cc1
78 | > 50 µM (inactive) | O=C(Cn1cnc(-c2noc(-c3ccncc3)n2)c1)N1CCN(c2ccccc2F)CC1
79 | 35.4 µM | O=C(CCCn1c(=O)[nH]c2cc(Cl)ccc2c1=O)N1CCc2ccccc2C1
80 | > 50 µM (inactive) | O=S1(=O)CCN(CC2CCCO2)c2c(Oc3ccccc3)nc(F)c(Cl)c21 (stereo not given)
81 | 4.67 µM | CCc1ccc(NC(=O)CN=C2NS(=O)(=O)C(c3ccc(CC)cc3)=C2C)cc1
82 | > 50 µM (inactive) | COc1ccccc1OCCNC(=O)c1cc(C2CC2)nc2c1cnn2C(C)C
83 | > 5 µM (inactive) | Cc1nn(CC(=O)Nc2ccc(Br)c3cccnc23)c(=O)c2ccccc12
84 | > 50 µM (inactive) | Cn1c(=O)c(C(=O)CN2CCN(c3ccc(O)cc3)CC2)c(N)n(Cc2ccccc2)c1=O
85 | > 50 µM (inactive) | COc1ccc(C(=O)N2CCCC3(C2)Nc2cccnc2NC3=NC2CCCC2)cn1 (stereo not given)
86 | 1.74 µM | COc1cc(NC(=O)Cn2nc(-c3ccc(F)cc3)ccc2=O)ccc1-n1cnnn1
87 | 15.9 µM | CCn1c(COc2cccc(C(F)(F)F)c2)nnc1SCc1ccc(Cl)cc1
88 | 42.2 µM | O=C(COc1ncnc2ccccc12)Nc1ccc2c(c1)OC1(CCCC1)O2
89 | 44.4 µM | Cc1c(-c2nnc(-c3ccccn3)o2)nnn1-c1cccc(Cl)c1
90 | > 50 µM (inactive) | O=C(OCc1cccc(Cl)c1)c1ccc2ccccc2n1
91 | 19 µM | O=C(c1ccc(Cl)cc1)c1c[nH]cc1-c1c(F)cccc1Cl
92 | 30.8 µM | O=c1c2ccccc2ncn1C1CCN(S(=O)(=O)c2ccccc2F)CC1
93 | 1.29 µM | CCOc1ccc2cc3c(nc2c1)OC(=O)N(Cc1ccc(C)o1)C3
94 | > 50 µM (inactive) | COc1cccc(/C=C/C(=O)Nc2ccc(N3CCOCC3)cc2)c1OC
95 | 41.3 µM | COc1cnc(CSc2ncccn2)cc1OCC(=O)Nc1cc(C)ccc1C
96 | > 50 µM (inactive) | COc1ccc(C2C(C(=O)C(C)(C)C)N3c4ccccc4C=CC3C23C(=O)c2ccccc2C3=O)c(OC)c1 (stereo not given)
97 | 2.4 µM | Cc1cccc(-n2ccnc(SCC(=O)Nc3ccc(Cl)cc3F)c2=O)c1

Row | Structure (SMILES) | IC50
98 | COc1cccc2c1NC(=O)C21CCN(C(=O)Nc2cccc(C)c2)CC1 | 16.3 µM
99 | COc1cc([C@@H]2c3cc4c(cc3C[C@@H]3COC(=O)[C@H]32)OCO4)cc(OC)c1OC | 18.7 µM
100 | Cn1ccnc1CN1C[C@H]2CCN(c3ncccn3)C[C@H]2C1 | > 50 µM (inactive)
